US20030225127A1, “Heterocyclic sulfonamide derivatives” (priority 2003, published 2003)

melting point | SMILES
170 to 171 °C | CC(CNS(=O)(=O)C(C)C)c1ccc(-c2ccc3c(c2)CC(=O)N3)cc1 (centres unmarked) [Example 3, 5-[4-(1-methyl-2-{[(methylethyl)sulfonyl]amino}ethyl)phenyl]indolin-2-one]
184 to 185 °C | CC(C)S(=O)(=O)NC[C@H](C)c1ccc(-c2ccc3c(c2)CC(=O)N3)cc1 [Example 4, 5-[4-((1R)-1-methyl-2-{[(methylethyl)sulfonyl]amino}ethyl)phenyl]indolin-2-one]
